Drawing on patent publication US20240190841A1, “MODULATORS OF BCL6 PROTEOLYSIS AND ASSOCIATED METHODS OF USE” (Arvinas Operations, Inc., priority 2022, published 2024), this text covers DC50 and Dmax for 13 compounds.

This experiment addresses T1, BCL6 (Homo sapiens, UniProt P41182).
T1 construct: endogenous in cells; host or cells: T47D breast cancer epithelial cells
The experiment can be described thus: Immunofluorescence high content imaging of BCL6 degradation in T47D cells. Type of experiment: cell-based. The settings on record: T47D breast cancer epithelial cells, 3 days incubation. Here is the method:
Immunofluorescence Protocol for High Content Imaging of BCL6
T47D cells were seeded in 100 μl volume of RPMI11640-10% FBS in a 96-well black/clear bottom plates for adherent lines (Corning #3904).
Day 1. T47D breast cancer epithelial cells were seeded at a density so that confluence is ˜70-90% at endpoint. Cells were seeded at 7K/0.1 mL/well the morning prior to the addition of exemplary bifunctional degradation compounds.
Day 2. Prepare an 11 point 3-fold serial dilution of exemplary bifunctional compound in DMSO and aliquot an appropriate volume to cell growth media to generate a 2× final concentration of exemplary bifunctional compound. Add an equal volume (0.1 ml) of 2× exemplary bifunctional compound/media mix to previously plated cells, for a final top concentration in aqueous cell growth media of 0.1 or 1 μM. Incubate for 3 days at 37° C., 5% CO2.
Day 5 Immunofluorescence. Discard cell media. Wash wells with 200 μl of room temperature phosphate-buffered saline (PBS). Prepared 4% paraformaldehyde (PFA) from 16% PFA (Electron Microscopy Sciences #15710) using 1×PBS. Fifty μL of 4% PF was added to each well and incubate for 15 minutes at room temperature to fix the cells. The PFA was aspirated and the cells washed twice with PBS (200 μL)).
Prepared 0.1% Triton X-100 in PBS using 10% triton X-100 stock. The cells were permeabilized by adding 100 μL of the 0.1% Triton X-100 in PBS to each well to permeabilize cells and incubating at room temperature for 15 minutes. Cells were washed twice with PBS.
Prepared 3% BSA/PBS (from Thermofisher #37515 Blocker BSA in TBS, 10%), and 100 μL was added to each well. The cells were incubated for at least 1 hour at room temperature.
Prepared 1% BSA/PBS using Blocker BSA/PBS, and the 3% BSA/PBS removed from the wells.
For no primary antibody controls, 50 μL 1% BSA/PBS was added.
Primary antibody (BCL6 Rb Ab, CST-14895, Cell Signaling) was diluted 1:300 in 1% BSA/PBS using Blocker BSA/PBS.
Fifty μl of primary antibody added to all remaining wells (i.e., all wells other than the primary antibody controls) and the cells were incubated overnight at 4° C. with slow orbital movement.
Day 6. Contents of the wells was removed and the cells washed four times with 200 μL PBS. 1% BSA/PBS was prepared using Blocker BSA in PBS.
Diluted secondary antibody goat anti-Rb IgG Alexa-488 1:1000, and cell mask-Alexa-647 1:3000 in 1% BSA/PBS in the same mix. Add 50 μL to each well and incubate at room temperature for 1 hour in the dark.
Cells were washed three times with 200 μL PBS, and then incubated for 10 minutes with 100 μL Hoechst dye at 1 μg/mL (20 mM stock) to stain cell nuclei. Wells were then washed with 200 μl PBS, and 100 μL of PBS was added to each well and the plate covered plate with a plastic opaque cover. Plates were stored at […] and covered in aluminum foil until imaged.
Plates were equilibrated to room temperature prior to reading. The bottom of the plate was wiped with 70% isopropanol immediately prior to imaging.
Imaging: • 10×, 4 fields/well, include Top hat smoothing in the analysis protocol.
Supplies/Reagents: • 16% paraformaldehyde: Electron Microscopy Sciences #15710 • Hoechst: Thermofisher #62249 • Blocker BSA in PBS, 10%: Thermofisher #37515 • Blocker BSA in TBS, 10%: Thermofisher #37520 • Goat anti-rabbit or mouse AlexaFluor-488: Thermofisher #A11008 • Cell mask deep red AlexaFluor-647: Thermofisher #C10046 • Wash buffer, PBS: 20×PBS, Thermofisher
One may read the DC50 as the midpoint of the concentration-degradation curve. A high value points to a less potent degrader. For orientation: Dmax means the largest share of the target that was removed. On to `CNC(=O)COc1cc2cc(Nc3nc(N4CCC(O[C@H]5C[C@H](N6CCN(c7ccc8c(c7F)n(C)c(=O)n8C7CCC(=O)NC7=O)CC6)C5)CC4)ncc3Cl)ccc2n(C(C)C)c1=O` (stereo partly drawn) [Compound 8, 2-({6-[(5-chloro-2-{4-[(1r,3r)-3-{4-[1-(2,6-dioxopiperidin-3-yl)-4-fluoro-3-methyl-2-oxo-2,3-dihydro-1H-1,3-benzodiazol-5-yl]piperazin-1-yl}cyclobutoxy]piperidin-1-yl}pyrimidin-4-yl)amino]-2-oxo-1-(propan-2-yl)-1,2-dihydroquinolin-3-yl}oxy)-N-methylacetamide], for which the DC50 is less than 0.01 µM and the Dmax is not below 70%. Consider `CNC(=O)COc1cc2cc(Nc3nc(N4CCC(O[C@H]5C[C@H](N6CCN(c7ccc8c(c7F)[C@@H](C)N([C@@H]7CCC(=O)NC7=O)C8=O)[C@H](C)C6)C5)CC4)ncc3Cl)ccc2n(C(C)C)c1=O` (single isomer, unassigned) [Compound 31], for which the half-maximal degradation concentration (DC50) was less than 0.01 µM. The compound `CNC(=O)COc1cc2cc(Nc3nc(N4CCC(O[C@H]5C[C@H](N6CCC(c7cc(C)c8c(c7)CN(C7CCC(=O)NC7=O)C8=O)CC6)C5)CC4)ncc3Cl)ccc2n(C(C)C)c1=O` (stereo partly drawn) [Compound 37, 2-({6-[(5-chloro-2-{4-[(1r,3r)-3-{4-[2-(2,6-dioxopiperidin-3-yl)-7-methyl-1-oxo-3H-isoindol-5-yl]piperidin-1-yl}cyclobutoxy]piperidin-1-yl}pyrimidin-4-yl)amino]-1-isopropyl-2-oxoquinolin-3-yl}oxy)-N-methylacetamide] came in with a 50% degradation concentration (DC50) of less than 0.01 µM and a Dmax not below 70%. `CNC(=O)COc1cc2cc(Nc3nc(N4CCC(O[C@H]5C[C@H](N6CCN(c7ccc8c(n7)n(C)c(=O)n8C7CCC(=O)NC7=O)CC6)C5)CC4)ncc3Cl)ccc2n(C(C)C)c1=O` (stereo partly drawn) [Compound 6, 2-({6-[(5-chloro-2-{4-[(1r,3r)-3-{4-[1-(2,6-dioxopiperidin-3-yl)-3-methyl-2-oxo-1H,2H,3H-imidazo[4,5-b]pyridin-5-yl]piperazin-1-yl}cyclobutoxy]piperidin-1-yl}pyrimidin-4-yl)amino]-2-oxo-1-(propan-2-yl)-1,2-dihydroquinolin-3-yl}oxy)-N-methylacetamide] yielded a DC50 of less than 0.01 µM and a Dmax not below 70%. Regarding `CNC(=O)COc1cc2cc(Nc3nc(N4CCC(O[C@H]5C[C@H](N6CCN(c7cc8c(cn7)n(C7CCC(=O)NC7=O)c(=O)n8C)CC6)C5)CC4)ncc3Cl)ccc2n(C(C)C)c1=O` (stereo partly drawn) [Compound 14, 2-({6-[(5-chloro-2-{4-[(1r,3r)-3-{4-[3-(2,6-dioxopiperidin-3-yl)-1-methyl-2-oxo-1H,2H,3H-imidazo[4,5-c]pyridin-6-yl]piperazin-1-yl}cyclobutoxy]piperidin-1-yl}pyrimidin-4-yl)amino]-2-oxo-1-(propan-2-yl)-1,2-dihydroquinolin-3-yl}oxy)-N-methylacetamide], the 50% degradation concentration (DC50) was less than 0.01 µM and the Dmax is 50 to 70%. In turn, `CNC(=O)COc1cc2cc(Nc3nc(N4CCC(O[C@H]5C[C@H](N6CCN(c7ccc8c(c7Cl)[C@@H](C)N([C@H]7CCC(=O)NC7=O)C8=O)[C@H](C)C6)C5)CC4)ncc3Cl)ccc2n(C(C)C)c1=O` (single isomer, unassigned) [Compound 32] gave a DC50 of less than 0.01 µM and a maximal degradation (Dmax) not below 70%. `CNC(=O)COc1cc2cc(Nc3nc(N4CCC(O[C@H]5C[C@H](N6CC[C@@H](c7cc(C)c8c(c7F)CN([C@H]7CCC(=O)NC7=O)C8=O)[C@@H](F)C6)C5)CC4)ncc3Cl)ccc2n(C(C)C)c1=O` [Compound 38, 2-({6-[(5-chloro-2-{4-[(1r,3r)-3-[(3R,4S)-4-{2-[(3S)-2,6-dioxopiperidin-3-yl]-4-fluoro-7-methyl-1-oxo-3H-isoindol-5-yl}-3-fluoropiperidin-1-yl]cyclobutoxy]piperidin-1-yl}pyrimidin-4-yl)amino]-1-isopropyl-2-oxoquinolin-3-yl}oxy)-N-methylacetamide] registered a DC50 of less than 0.01 µM and a Dmax of 50 to 70%. In the case of `CNC(=O)COc1cc2cc(Nc3nc(N4CCC(O[C@H]5C[C@H](N6CCC(c7ccc8c(c7)n(C)c(=O)n8C7CCC(=O)NC7=O)CC6)C5)CC4)ncc3Cl)ccc2n(C(C)C)c1=O` (stereo partly drawn) [Compound 4, 2-({6-[(5-chloro-2-{4-[(1r,3r)-3-{4-[1-(2,6-dioxopiperidin-3-yl)-3-methyl-2-oxo-2,3-dihydro-1H-1,3-benzodiazol-5-yl]piperidin-1-yl}cyclobutoxy]piperidin-1-yl}pyrimidin-4-yl)amino]-2-oxo-1-(propan-2-yl)-1,2-dihydroquinolin-3-yl}oxy)-N-methylacetamide], the DC50 was less than 0.01 µM and the Dmax is not below 70%. Compound `CNC(=O)COc1cc2cc(Nc3nc(N4CCC(CN5CCC(N6CCN(c7ccc8c(c7F)CN(C7CCC(=O)NC7=O)C8=O)CC6)C(F)(F)C5)CC4)ncc3Cl)ccc2n(C(C)C)c1=O` (stereo not drawn) [Compound 42, 2-({6-[(5-chloro-2-{4-[(4-{4-[2-(2,6-dioxopiperidin-3-yl)-4-fluoro-1-oxo-3H-isoindol-5-yl]piperazin-1-yl}-3,3-difluoropiperidin-1-yl)methyl]piperidin-1-yl}pyrimidin-4-yl)amino]-1-isopropyl-2-oxoquinolin-3-yl}oxy)-N-methylacetamide] showed a DC50 of less than 0.01 µM and a maximal degradation (Dmax) of 50 to 70%.

In the case of `CNC(=O)COc1cc2cc(Nc3nc(N4CCC(O[C@H]5C[C@H](N6CCN(c7ccc8c(c7)n(C)c(=O)n8C7CCC(=O)NC7=O)[C@H](C)C6)C5)CC4)ncc3Cl)ccc2n(C(C)C)c1=O` (stereo partly drawn) [Compound 13, 2-({6-[(5-chloro-2-{4-[(1r,3r)-3-[(3R)-4-[1-(2,6-dioxopiperidin-3-yl)-3-methyl-2-oxo-2,3-dihydro-1H-1,3-benzodiazol-5-yl]-3-methylpiperazin-1-yl]cyclobutoxy]piperidin-1-yl}pyrimidin-4-yl)amino]-2-oxo-1-(propan-2-yl)-1,2-dihydroquinolin-3-yl}oxy)-N-methylacetamide], the DC50 is less than 0.01 µM and the Dmax is not below 70%.

On to `CNC(=O)COc1cc2cc(Nc3nc(N4CCC(O[C@H]5C[C@H](N6CCN(c7cc(OC)c8c(c7)n(C)c(=O)n8C7CCC(=O)NC7=O)CC6)C5)CC4)ncc3Cl)ccc2n(C(C)C)c1=O` (stereo partly drawn) [Compound 25, 2-({6-[(5-chloro-2-{4-[(1r,3r)-3-{4-[1-(2,6-dioxopiperidin-3-yl)-7-methoxy-3-methyl-2-oxo-2,3-dihydro-1H-1,3-benzodiazol-5-yl]piperazin-1-yl}cyclobutoxy]piperidin-1-yl}pyrimidin-4-yl)amino]-2-oxo-1-(propan-2-yl)-1,2-dihydroquinolin-3-yl}oxy)-N-methylacetamide], for which the 50% degradation concentration (DC50) is less than 0.01 µM.

With `CNC(=O)COc1cc2cc(Nc3nc(N4CCC(O[C@H]5C[C@H](N6CCN(c7ccc8nn(C9CCC(=O)NC9=O)cc8c7)CC6)C5)CC4)ncc3Cl)ccc2n(C(C)C)c1=O` (stereo partly drawn) [Compound 22, 2-({6-[(5-chloro-2-{4-[(1r,3r)-3-{4-[2-(2,6-dioxopiperidin-3-yl)-2H-indazol-5-yl]piperazin-1-yl}cyclobutoxy]piperidin-1-yl}pyrimidin-4-yl)amino]-2-oxo-1-(propan-2-yl)-1,2-dihydroquinolin-3-yl}oxy)-N-methylacetamide], the DC50 lay within 0.01 to 0.05 µM and the Dmax fell in the range of 50 to 70%. `CNC(=O)COc1cc2cc(Nc3nc(N4CCC(CN5CCC(C6CCN(c7ccc8c(c7F)CN(C7CCC(=O)NC7=O)C8=O)CC6)C(F)C5)CC4)ncc3Cl)ccc2n(C(C)C)c1=O` (stereo not drawn) [Compound 44, 2-{[6-({5-chloro-2-[4-({1′-[2-(2,6-dioxopiperidin-3-yl)-4-fluoro-1-oxo-2,3-dihydro-1H-isoindol-5-yl]-3-fluoro-[4,4′-bipiperidin]-1-yl}methyl)piperidin-1-yl]pyrimidin-4-yl}amino)-2-oxo-1-(propan-2-yl)-1,2-dihydroquinolin-3-yl]oxy}-N-methylacetamide]: the DC50 is less than 0.01 µM and the Dmax was 50 to 70%.
